Patent publication US7799809B2, “Carboxamide compounds and their use as calpain inhibitors” (Abbott GmbH & Co. KG, priority 2006, dated 2010)

What was measured:
Format in all cases: biochemical
[1] = target: T1, cathepsin B (Homo sapiens, UniProt P07858); assay: Cathepsin B enzyme inhibition in vitro (kinetic fluorescence assay); details: cathepsin B isolated from human liver vs calpain I
T1 construct: cathepsin B—isolated from human liver (Calbiochem #219362); purchased Calbiochem 219362; host or cells: human liver (tissue-derived)
How it was run: (§1)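 Kinetic fluorescence (ex 390/em 460 nm) at room temperature in 50 mM MES, 2 mM EDTA, 0.05% Brij 35, 2.5 mM L-cysteine, pH 6.0. Cathepsin B (liver, 0.25 nM) with 100 μM Z-Phe-Arg-AMC; cathepsin L (liver, 1 nM) with 2 μM Z-Phe-Arg-AMC; recombinant E. coli cathepsin S (0.5 nM) with 20 μM Z-Val-Val-Arg-AMC. Ki via Cheng-Prusoff.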

[2] = target: T2, cathepsin S (Homo sapiens, UniProt P25774); assay: Cathepsin S enzyme inhibition in vitro (kinetic fluorescence assay); details: recombinant human cathepsin S vs calpain I
T2 construct: purchased Calbiochem 219343; host or cells: E. coli
How it was run: as §1

[3] = target: T3, cathepsin K (Homo sapiens, UniProt P43235); assay: Cathepsin K enzyme inhibition in vitro (kinetic fluorescence assay); details: cathepsin K activated from recombinant human procathepsin K vs calpain I
T3 construct: purchased Calbiochem 342001; host or cells: E. coli
T3 sequence (P43235 115-329): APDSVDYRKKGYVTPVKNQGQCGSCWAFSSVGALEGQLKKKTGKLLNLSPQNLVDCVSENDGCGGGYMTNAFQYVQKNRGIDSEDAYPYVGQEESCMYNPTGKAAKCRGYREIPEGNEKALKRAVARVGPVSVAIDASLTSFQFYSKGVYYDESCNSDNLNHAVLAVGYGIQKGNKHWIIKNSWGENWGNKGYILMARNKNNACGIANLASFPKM

[4] = target: T4, cathepsin L (Homo sapiens, UniProt P07711); assay: Cathepsin L enzyme inhibition in vitro (kinetic fluorescence assay); details: cathepsin L isolated from human liver vs calpain I
T4 construct: cathepsin L—isolated from human liver (Calbiochem #219402); purchased Calbiochem 219402; host or cells: human liver (tissue-derived)
How it was run: as §1

T2 sequence (P25774 115-331): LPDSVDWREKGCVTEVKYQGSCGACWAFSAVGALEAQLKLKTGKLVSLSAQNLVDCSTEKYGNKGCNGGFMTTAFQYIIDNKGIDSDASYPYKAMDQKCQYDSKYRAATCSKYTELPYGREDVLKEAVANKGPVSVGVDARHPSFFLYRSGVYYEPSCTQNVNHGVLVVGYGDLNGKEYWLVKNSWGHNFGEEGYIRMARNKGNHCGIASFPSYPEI
T4 sequence (P07711 114-333): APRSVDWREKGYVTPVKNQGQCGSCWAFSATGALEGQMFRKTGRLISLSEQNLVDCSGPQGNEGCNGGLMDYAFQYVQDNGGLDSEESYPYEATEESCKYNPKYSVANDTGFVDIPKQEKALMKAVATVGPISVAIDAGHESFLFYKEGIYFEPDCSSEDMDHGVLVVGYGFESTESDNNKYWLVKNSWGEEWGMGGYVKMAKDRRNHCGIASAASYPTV

| SMILES | Sel cat. B: Ki(cathepsin B)/Ki(calpain) ratio [1] | Sel cat. S: Ki(cathepsin S)/Ki(calpain) ratio [2] | Sel cat. K: Ki(cathepsin K)/Ki(calpain) ratio [3] | Sel cat. L: Ki(cathepsin L)/Ki(calpain) ratio [4] |
| --- | --- | --- | --- | --- |
| NC(=O)C(=O)C(Cc1ccccc1)NC(=O)c1cccnc1-n1ccc(-c2ccccc2Cl)n1 (stereo not shown) [Example 54, N-(3-Amino-1-benzyl-2,3-dioxopropyl)-2-[3-(2-chlorophenyl)-1H-pyrazol-1-yl]nicotinamide] | ++ (++ means a Ki(cathepsin B)/Ki(calpain) ratio of ≧30) | ++ (++ means a Ki(cathepsin S)/Ki(calpain) ratio of ≧100) | ++ (++ means a Ki(cathepsin K)/Ki(calpain) ratio of ≧30) | ++ (++ means a Ki(cathepsin L)/Ki(calpain) ratio of ≧50) |
| COc1ccc(F)cc1-c1ccn(-c2ncccc2C(=O)NC(Cc2ccccc2)C(=O)C(N)=O)n1 (stereo not shown) [Example 130, N-[3-Amino-2,3-dioxo-1-(phenylmethyl)propyl]-2-{3-[5-fluoro-2-(methyloxy)phenyl]-1H-pyrazol-1-yl}pyridine-3-carboxamide] | ++ (++ means a Ki(cathepsin B)/Ki(calpain) ratio of ≧30) | ++ (++ means a Ki(cathepsin S)/Ki(calpain) ratio of ≧100) | ++ (++ means a Ki(cathepsin K)/Ki(calpain) ratio of ≧30) | ++ (++ means a Ki(cathepsin L)/Ki(calpain) ratio of ≧50) |
| COc1ccc(CC(NC(=O)c2cccnc2-n2ccc(-c3cccc(Cl)c3Cl)n2)C(=O)C(N)=O)cc1 (stereo not shown) [Example 153, N-(3-Aamino-1-{[4-(methyloxy)phenyl]methyl}-2,3-dioxopropyl)-2-[3-(2,3-dichlorophenyl)-1H-pyrazol-1-yl]pyridine-3-carboxamide] | ++ (++ means a Ki(cathepsin B)/Ki(calpain) ratio of ≧30) | ++ (++ means a Ki(cathepsin S)/Ki(calpain) ratio of ≧100) | ++ (++ means a Ki(cathepsin K)/Ki(calpain) ratio of ≧30) | ++ (++ means a Ki(cathepsin L)/Ki(calpain) ratio of ≧50) |
| NC(=O)C(=O)C(Cc1ccccc1)NC(=O)c1cccnc1-n1ccc(-c2sccc2Cl)n1 (stereo not shown) [Example 109, N-[3-Amino-2,3-dioxo-1-(phenylmethyl)propyl]-2-[3-(3-chloro-2-thienyl)-1H-pyrazol-1-yl]pyridine-3-carboxamide] | ++ (++ means a Ki(cathepsin B)/Ki(calpain) ratio of ≧30) | ++ (++ means a Ki(cathepsin S)/Ki(calpain) ratio of ≧100) | ++ (++ means a Ki(cathepsin K)/Ki(calpain) ratio of ≧30) | ++ (++ means a Ki(cathepsin L)/Ki(calpain) ratio of ≧50) |
| NC(=O)C(=O)C(Cc1ccccc1)NC(=O)c1cccnc1-n1ccc(-c2ccc(Cl)cc2Cl)n1 (stereo not shown) [Example 79, N-(3-Amino-1-benzyl-2,3-dioxopropyl)-2-[3-(2,4-dichlorophenyl)-1H-pyrazol-1-yl]nicotinamide] | ++ (++ means a Ki(cathepsin B)/Ki(calpain) ratio of ≧30) | ++ (++ means a Ki(cathepsin S)/Ki(calpain) ratio of ≧100) | ++ (++ means a Ki(cathepsin K)/Ki(calpain) ratio of ≧30) | ++ (++ means a Ki(cathepsin L)/Ki(calpain) ratio of ≧50) |
| NC(=O)C(=O)C(Cc1ccccc1)NC(=O)c1cccnc1-n1ccc(-c2ccccc2)n1 (stereo not shown) [Example 5, N-(3-Amino-1-benzyl-2,3-dioxopropyl)-2-(3-phenyl-1H-pyrazol-1-yl)nicotinamide] | + (+ means 10≦Ki(cathepsin B)/Ki(calpain)<30) | ++ (++ means a Ki(cathepsin S)/Ki(calpain) ratio of ≧100) | + (+ means 10≦Ki(cathepsin K)/Ki(calpain)<30) | ++ (++ means a Ki(cathepsin L)/Ki(calpain) ratio of ≧50) |
| NC(=O)C(=O)C(Cc1ccccc1)NC(=O)c1cccnc1-n1ccc(-c2ccccc2OC(F)(F)F)n1 (stereo not shown) [Example 124, N-[3-Amino-2,3-dioxo-1-(phenylmethyl)propyl]-2-(3-{2-[(trifluoromethyl)oxy]phenyl}-1H-pyrazol-1-yl)pyridine-3-carboxamide] | ++ (++ means a Ki(cathepsin B)/Ki(calpain) ratio of ≧30) | ++ (++ means a Ki(cathepsin S)/Ki(calpain) ratio of ≧100) | ++ (++ means a Ki(cathepsin K)/Ki(calpain) ratio of ≧30) | ++ (++ means a Ki(cathepsin L)/Ki(calpain) ratio of ≧50) |
| NC(=O)C(=O)C(Cc1ccc(OC(F)(F)F)cc1)NC(=O)c1cccnc1-n1ccc(-c2cccc(C(F)(F)F)c2)n1 (stereo not shown) [Example 134, N-[3-Amino-2,3-dioxo-1-({4-[(trifluoromethyl)oxy]phenyl}methyl)propyl]-2-{3-[3-(trifluoromethyl)phenyl]-1H-pyrazol-1-yl}pyridine-3-carboxamide] | ++ (++ means a Ki(cathepsin B)/Ki(calpain) ratio of ≧30) | + (+ means 50≦Ki(cathepsin S)/Ki(calpain)<100) | ++ (++ means a Ki(cathepsin K)/Ki(calpain) ratio of ≧30) | + (+ means 30≦Ki(cathepsin L)/Ki(calpain)<50) |
| NC(=O)C(=O)C(Cc1ccccc1)NC(=O)c1cccnc1-n1cc2c(n1)-c1ccccc1CC2 (stereo not shown) [Example 63, N-(3-Amino-1-benzyl-2,3-dioxopropyl)-2-(4,5-dihydro-2H-benzo[g]indazol-2-yl)nicotinamide] | + (+ means 10≦Ki(cathepsin B)/Ki(calpain)<30) | ++ (++ means a Ki(cathepsin S)/Ki(calpain) ratio of ≧100) | + (+ means 10≦Ki(cathepsin K)/Ki(calpain)<30) | ++ (++ means a Ki(cathepsin L)/Ki(calpain) ratio of ≧50) |
| Cc1c(Cl)ccc2c1-c1nn(-c3ncccc3C(=O)NC(Cc3ccccc3)C(=O)C(N)=O)cc1CO2 (stereo not shown) [Example 143, N-[3-Amino-2,3-dioxo-1-(phenylmethyl)propyl]-2-(8-chloro-9-methylchromeno[4,3-c]pyrazol-2(4H)-yl)pyridine-3-carboxamide] | ++ (++ means a Ki(cathepsin B)/Ki(calpain) ratio of ≧30) | ++ (++ means a Ki(cathepsin S)/Ki(calpain) ratio of ≧100) | ++ (++ means a Ki(cathepsin K)/Ki(calpain) ratio of ≧30) | ++ (++ means a Ki(cathepsin L)/Ki(calpain) ratio of ≧50) |
| NC(=O)C(=O)C(Cc1ccccc1)NC(=O)c1cccnc1-n1ccc(-c2c(F)cc(F)cc2F)n1 (stereo not shown) [Example 116, N-[3-Amino-2,3-dioxo-1-(phenylmethyl)propyl]-2-[3-(2,4,6-trifluorophenyl)-1H-pyrazol-1-yl]pyridine-3-carboxamide] | ++ (++ means a Ki(cathepsin B)/Ki(calpain) ratio of ≧30) | ++ (++ means a Ki(cathepsin S)/Ki(calpain) ratio of ≧100) | + (+ means 10≦Ki(cathepsin K)/Ki(calpain)<30) | ++ (++ means a Ki(cathepsin L)/Ki(calpain) ratio of ≧50) |
| NC(=O)C(=O)C(Cc1ccccc1)NC(=O)c1cccnc1-n1ccc(-c2cccc3c2OCC3)n1 (stereo not shown) [Example 164, N-[3-Amino-2,3-dioxo-1-(phenylmethyl)propyl]-2-[3-(2,3-dihydro-1-benzofuran-7-yl)-1H-pyrazol-1-yl]pyridine-3-carboxamide] | + (+ means 10≦Ki(cathepsin B)/Ki(calpain)<30) | ++ (++ means a Ki(cathepsin S)/Ki(calpain) ratio of ≧100) | ++ (++ means a Ki(cathepsin K)/Ki(calpain) ratio of ≧30) | ++ (++ means a Ki(cathepsin L)/Ki(calpain) ratio of ≧50) |
| COc1ccc2c(c1)-c1nn(-c3ncccc3C(=O)NC(Cc3ccccc3)C(=O)C(N)=O)cc1CO2 (stereo not shown) [Example 183, N-[3-Aamino-2,3-dioxo-1-(phenylmethyl)propyl]-2-[8-(methyloxy)chromeno[4,3-c]pyrazol-2(4H)-yl]pyridine-3-carboxamide] | + (+ means 10≦Ki(cathepsin B)/Ki(calpain)<30) | ++ (++ means a Ki(cathepsin S)/Ki(calpain) ratio of ≧100) | + (+ means 10≦Ki(cathepsin K)/Ki(calpain)<30) | ++ (++ means a Ki(cathepsin L)/Ki(calpain) ratio of ≧50) |
